Structures can show the parent of a compound that is named as a salt.

Data on seven compounds can be found in patent EP0133795B1 (THE McLEAN HOSPITAL CORPORATION, priority 1983, dated 1985).

For series [1], the system named is bicuculline-induced epileptic seizures. Description: Delay of onset of bicuculline-induced seizures (anticonvulsant activity). The format is in vivo, mouse. The note with it: for In Vivo Delay of Time of Onset of Bicuculline-induced seizures: graded 0-5; for effect on bicuculline-induced seizures (in words): mice. As for the experimental part: In a second behavioral test, the ability of a substance to prevent or delay the onset of biculline-induced epileptic seizures was measured. […] At 24 hr after i.p. injection of the cholesteryl derivative at a dose of 30 mg/kg (64 pmol/kg), the onset of seizures was delayed by 30% after an acute i.p. injection of bicuculline at 0.3 mg/kg. […] The dexamethasone and butyl esters had no effect.
The compounds were also injected i.p. at 1, 6 and 24 hr before the administration of bicuculline (0.3 mg/kg) s.c. The latency to the onset of generalized tonic-clonic epileptic seizures and the protection against the lethality of bicuculline were measured and evaluated as a percent of the data for vehicle-injected controls. No significant changes were obtained at the 1 hr and 6 hr time points. At the 24 hr time, however, some compounds delayed while others accelerated the onset of seizures.
The effect of the compound to delay the onset of a bicuculline-induced seizures was evaluated.
The ability of a substance to delay the onset of bicuculline-induced epileptic seizures in the mouse was measured (Table X). […] At 24 hr after i.p. injection of the cholesteryl derivative (6) at a dose of 30 mg/kg (64 pmol/kg), the onset of seizures was delayed by 30% (as compared to saline controls) after an acute i.p. injection of bicuculline at 0.3 mg/kg. […] The dexamethasone and butyl esters had no effect on seizures in mice.

In a further series the test system is self-stimulation reward. Description: Self-stimulation reward test. The format is in vivo, rats. The note with it: for Max. DSSR: DSSR 0.3 designated as 100%. The text has this: The procedure measured the capacity of a given pharmacological agent to inhibit rats from receiving stimulating currents provided by electrodes implanted in their brains (lateral hypothalamus), Stellar et al, Pharmacol. Biochem. & Behav., 18,433-442 (1983). The animals will press a lever to receive a current from the implanted electrode in preference to all else. The rate at which they press the lever depends on the intensity of the current (reward) that is being produced by the electrode. The intensity of the current is varied by raising the frequency at which […] pulses (0.1 msec duration) are delivered during a 0.5 sec time span in response to a lever press. A plot of the log of the frequency of the delivered pulses vs. the rate of lever presses for an animal gives a self-stimulation reward curve. Injection of a drug which has a tranquilizing effect shifts such a curve to higher frequencies. The shift of this curve (measured at the halfway point) gives a parameter which is expressed as the "Depression of the Self-Stimulation Reward" or DSSR. The maximum DSSR value obtained for the most powerful neutoleptics and tranquilizing compounds tested so far, seldom exceeds 0.3. This is designated as 100%. In the actual tests, the maximum DSSR value obtained for a given dose of drug and the half-life time [duration half-life (DHL)] of its return to 0% (the control state) was measured.

Series [2] in a line: n-Octanol/water partition coefficient. The format is physicochemical. As to conditions: n-octanol/water, 5 ml n-octanol / 5 ml water, stirring 18 hours; read-out: KOW: Octanol/Water Partition Coefficient (converted). As for the experimental part: A Partition Coefficient was defined by the equation: [formula] representing the amount of the ester taken up per ml of n-octanol relative to the amount of the same compound taken up per ml of water.
The n-octanol/water partition coefficients were obtained from measurements of the distribution of 1, 3, 5 and 6 pmol quantities of each ^14C-labeled compound into a mixture of 5 ml of n-octanol and 5 ml water. At each concentration, the amount of labeled compound in the aqueous and n-octanol phases was calculated from the amount of radioactive material present after stirring for 18 hours.

Series [3] relates to general motor activity of mice. Description: General locomotor activity of mice (Stoelting electronic activity monitor). It is filed as in vivo, Balb/c mice. As to conditions: for activity in the general motor activity test (in words): i.p., mice. On the procedure:
The effect of intraperitoneal (i.p.) injections of test compounds on the general motor activity of mice during a 60-min period was determined in a Stoelting electronic activity monitor. Dose-response curves were obtained from which the half-maximally effective values were calculated and the results are shown in Table V.
The compounds were dissolved in 25% (vols.) propylene glycol in water and injected i.p. into Balb/c mice (18-24 g). Dose-response measurements were obtained for 6 animals per dose or time point. Activity was monitored for 60 min using a Stoelting Electronic Activity Monitor (EAM) apparatus to assess the general motor activity of the animals.
The general locomotor activity of mice was measured in the Stolting activity monitor apparatus during 60 min after an intraperitoneal (i.p.) injection of a test compound.

Series [4] can be described thus: Comparative brain/liver uptake of 14C-labeled compounds (Brain Penetration Index). As to conditions: for increase of 5-min BPI over GABA: 5 min after s.c. injection, relative to GABA. On the procedure:
The criterion used herein for measuring the extent to which a compound, from which the radical A is derived, crosses the blood-brain barrier is based on the uptake of this compound by the brain relative to its uptake by the liver. […] Measurements of the quantity of a compound present in brain and liver at 5 minutes after a subcutaneous (s.c.) injection were used to calculate a Brain Penetration Index (BPI), with the equation: [formula]
This is the amount of the compound present per gram of brain tissue as a percent of the amount per gram of liver tissue.
This procedure has the advantage that even for a sparingly soluble lipid ester, which tends to remain largely at the site of the injection and slowly diffuse into the circulation, its level in the liver will reflect the amount available rather than the initial dose injected.
The uptake of a ^14C-labeled compound into brain was compared with the uptake into liver of the same animal.
All determinations were carried out at 5 min after injection. The volumes of the injected doses into mice (body weight, 18-24 g) for the i.v., i.p., and s.c. doses were 0.15, 0.3 and 0.5 ml, respectively. […] Each tissue was homogenized in 8 ml of pyridine in a glass homogenizer.
Each labeled test compound was injected as a solution in 0.5 ml of saline (Compound 7) or in 25% propylene glycol in water (Compounds 1, 5, 6) subcutaneously (s.c.) into young adult Balb/c mice (18-24 g body weight). After 5 min (or longer) animals were sacrificed and the brain and liver removed, weighed and homogenized respectively in 8 ml and 10 ml of brain protein solvent (1 % (w/v) sodium dodecyl sulfate in 6 M urea and 19 mM EDTA, pH 7.4, 0.03 M phosphate). Aliquots (0.5 ml) of the homogenates were mixed with 10 ml of Aquasol 2 (New England Nuclear) and counted in a Beckman liquid scintillation counter. The total uptake of each compound per g brain and liver tissue was calculated. The proportion of uptake into brain as compared to liver (100%) of the same animal was designated as the Brain Penetration Index (BPI), expressed as a percentage typically at 5 min after injection.
Each of the ^14C-labeled Compounds 26, 28 and 30 were in 125 µl of the propylene glycol diluted with water up to 0.5 ml, and then injected subcutaneously into test Balb/c mice (20 ± 2 g weight). After 5 min the animals were sacrificed and the brain and liver were removed, weighed and homogenized in 8 ml and 10 ml of brain protein solvent, respectively. Next 0.5 ml aliquots were mixed with 10 ml of Aquasol 2 (New England Nuclear Corp., Boston, MA) and counted in a Beckman liquid scintillation counter. The data for the label in each tissue were used to calculate the total quantity of the compound present in brain and liver per gram of tissue. The ratio of the amount in brain as a percent of that present in liver at 5 min was taken as the Brain Penetration Index (BPI). Measurements at longer uptake times were also obtained to evaluate the accumulation of the compounds in the brain.

A short description of the next series: in vivo. The note with it: mouse, brain, sc.
Another series has as its system CAI pyramidal cells. The format is cell-based, Sprague-Dawley rats. On the procedure:
Transverse slices of hippocampus (350-375 µm thick) were prepared from Sprague-Dawley rats (200-300 g) and transferred onto a nylon net fixed over a 1.5 ml superfusion chamber. The slices were maintained at 32-33°C in a humidified atmosphere of 95%/5% 02/C02. The standard medium consisted of (in mM): NaCl, 125; KCI, 3.5; CaC12,2; MgS04, 1.5; NaH2PO4, 1; NaHC03, 24; and glucose, 10. Low chloride medium was prepared by substituting sodium isethionate for sodium chloride.
Extracellular potentials were recorded with NaCI-fitted micropipettes, and stimulus pulses were applied through bipolar platinum wire electrodes. The various drugs were dissolved in fresh medium (without glucose and phosphate) and applied to the surface of the tissue by pressure ejection from a micropipette, Sakai, Swartz and Woody, (1979).
The inhibitory effectiveness of various compounds was investigated by measuring their ability to suppress the extracellular population spike recorded from the hippocampal CAI pyramidal layer and elicited by stimulation of stratum radiatum axons. The amplitude of this monosynaptic population spike is essentially proportional to the number of pyramidal cells discharging in response to a stimulus volley, Andersen, Bliss and Skrede, (1971).
The various compounds were applied as droplets to the pyramidal layer approximately 75 µm from the recording electrode. The volume of a single drug application was about 300 picoliters. […] The volume ejected from each pipette was calibrated prior to use by measuring the diameter of the ejected droplet and adjusting the duration of the pressure pulse (usually 100-500 msec) until a standard diameter was reached. A constant droplet volume was used throughout the experiments. Where dose-response information was required, several pipettes with different drug concentrations were used.

Where [5] appears, read: 84 mg/kg, 24 hr pretreatment, bicuculline 0.3 mg/kg, mean ± SEM, n ≥ 6.
Setting [6] is: 70 μmol/kg s.c., 5 min, mice, mean ± S.E.M. (n = 3).
[7] abbreviates: Table IX summary, 5-min Brain Penetration Index.
Where [8] appears, read: Table IV, 380 μmol/kg s.c., 5 min, mice, mean ± S.E.M. (n = 3).

As for `CC(C)CCC[C@@H](C)[C@H]1CC[C@H]2[C@@H]3CC=C4C[C@@H](O)CC[C@]4(C)[C@H]3CC[C@]12C` [cholesterol, reference compound], in series [1] (setting [5]), the “Onset of seizures: % Saline Control” value is on record as 118 ± 6 % Saline Control and the “Survival Time: % Saline Control” value came out at 110 ± 7 % Saline Control.
For `C=CC(N)CCC(=O)O` (stereo not shown) [gamma-vinyl GABA, reference compound], in the series on self-stimulation reward (dose 31 μm/kg), the “Max. DSSR” value was 0. This compound returned a DHL in the series with self-stimulation reward (dose 31 μm/kg, duration half-life) of 0.
In the case of `C[C@@H]1C[C@H]2[C@@H]3CCC4=CC(=O)C=C[C@]4(C)[C@@]3(F)[C@@H](O)C[C@]2(C)[C@@]1(O)C(=O)COC(=O)CCCN` [Compound 7, Dexamethasone-21-gamma-aminobutyrate], in series [2], the logP at 18 h was -0.0458. For the same compound, the “In Vivo Inhibition of General Motor Activity” value in series [3] (graded 0-5) came to 0. In addition, the “activity in the general motor activity test (in words)” value in series [3] is “not active”. Further, in series [1], the “In Vivo Delay of Time of Onset of Bicuculline-induced seizures” value is given as 0 and the “effect on bicuculline-induced seizures (in words)” value is given as “no effect”. Besides, in series [4] (setting [6]), the “(BRAIN)” value was 8.7 ± 1 nmol/g, the “(LIVER)” value came to 10.8 ± 2 nmol/g and the BPI is on record as 81 ± 20%. Besides, in series [4] (70 μmol/kg s.c., 15 min, mice), the “(BRAIN)” value was found to be 21.5 nmol/g, the “(LIVER)” value came out at 29.0 nmol/g and the BPI is given as 74%. Further, the “increase of 5-min BPI over GABA” value in series [4] worked out at 81 fold. This compound came in with a BPI in series [4] (setting [7]) of 81.
Take `C=CC(N)CCC(=O)O[C@H]1CC[C@@]2(C)C(=CC[C@H]3[C@@H]4CC[C@H]([C@H](C)CCCC(C)C)[C@@]4(C)CC[C@@H]32)C1` (stereo partly shown) [Compound 33, Cholesteryl gamma-vinyl gamma-aminobutyrate hydrochloride]: in the series on self-stimulation reward (dose 40 μm/kg), the “Max. DSSR” value amounted to 83. In the series with self-stimulation reward (dose 40 μm/kg, duration half-life of return to 0%), the DHL was in the range of 24 to 48 h.
The term amount remaining denotes what is left of the initial amount, in per cent. For the compound `CCCCOC(=O)CCCN` [Compound 1, Butyl Ester of GABA], the “activity in the general motor activity test (in words)” value in series [3] is reported as “not active”. This compound yielded a share remaining at 1 h in the series “in vivo” of 4%. In series [1], the “In Vivo Delay of Time of Onset of Bicuculline-induced seizures” value was determined as 1 and the “effect on bicuculline-induced seizures (in words)” value is recorded as “no effect”. Besides, in series [4] (380 μmol/kg s.c., 60 min, mice), the “(BRAIN)” value worked out at 14.4 nmol/g, the “(LIVER)” value is given as 13.7 nmol/g and the BPI is on record as 105%. Moreover, the “increase of 5-min BPI over GABA” value in series [4] was 74 fold. For the same compound, in series [4] (setting [8]), the “(BRAIN)” value stood at 19.2 ± 0.3 nmol/g, the “(LIVER)” value was 26.0 ± 1.6 nmol/g and the BPI is 74 ± 3.4%. Also, the BPI in series [4] (setting [7]) is on record as 74.
Regarding `NCc1cc(=O)[nH]o1` [muscimol], in the series on CAI pyramidal cells, the “duration of effect relative to a comparably effective dose of GABA” value is reported as “roughly 100 times” and the “effect with picrotoxin (10 µM) in the medium or low chloride medium” value was “little effect”. Besides, in the series with CAI pyramidal cells (concentration in the drug pipette), the “doses required relative to GABA for effects of comparable magnitude” value is on record as “nearly a thousand-fold lower”. For the same compound, the “inhibition of the evoked population spike” value with CAI pyramidal cells (droplets applied to the CAI pyramidal layer) is reported as “dose-dependent inhibition”.
For “1-Linolenoyl 2-gamma-aminobutyryl 3-gamma-vinyl-gamma-aminobutyryl glycerol dihydrochloride [Compound 40]”, the “Max. DSSR” value with self-stimulation reward (dose 16 μm/kg, Depression of the Self-Stimulation Reward) amounted to 90. Besides, in the series on self-stimulation reward (dose 16 μm/kg, duration half-life of return to 0%), the DHL came to 0.5 h.
